Laboratory results reported in US6362173B1, “Methods for treating psychosis associated with cocaine addiction with glucocorticoid receptor antagonists” (The Board of Trustees of the Leland Stanford Junior …, priority 1997, dated 2002).

Assays:
[1] = target: T1, glucocorticoid (GR) receptor (Homo sapiens, UniProt P04150); conditions: cited from earlier work
T1 sequence (P04150 1-777): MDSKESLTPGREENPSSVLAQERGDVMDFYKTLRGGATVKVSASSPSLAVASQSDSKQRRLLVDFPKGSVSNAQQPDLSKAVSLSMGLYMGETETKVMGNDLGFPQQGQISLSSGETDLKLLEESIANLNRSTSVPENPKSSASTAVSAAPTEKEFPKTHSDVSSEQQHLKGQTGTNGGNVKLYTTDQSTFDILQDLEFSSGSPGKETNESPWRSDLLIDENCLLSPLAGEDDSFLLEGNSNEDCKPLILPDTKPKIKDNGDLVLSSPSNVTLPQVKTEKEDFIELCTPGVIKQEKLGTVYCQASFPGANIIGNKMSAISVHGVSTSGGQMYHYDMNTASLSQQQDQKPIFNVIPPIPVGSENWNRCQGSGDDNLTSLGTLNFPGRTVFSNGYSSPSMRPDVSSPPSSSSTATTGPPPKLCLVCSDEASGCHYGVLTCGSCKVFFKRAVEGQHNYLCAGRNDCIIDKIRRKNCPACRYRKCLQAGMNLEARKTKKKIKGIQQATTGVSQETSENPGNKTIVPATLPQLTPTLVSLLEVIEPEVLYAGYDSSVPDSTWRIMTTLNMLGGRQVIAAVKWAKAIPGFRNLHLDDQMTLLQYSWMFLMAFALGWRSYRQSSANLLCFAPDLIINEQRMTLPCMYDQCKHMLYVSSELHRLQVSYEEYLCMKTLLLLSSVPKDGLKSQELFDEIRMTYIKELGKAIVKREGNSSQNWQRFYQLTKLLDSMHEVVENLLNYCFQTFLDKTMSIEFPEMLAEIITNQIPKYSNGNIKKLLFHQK

[2] = test system: patients with psychotic major depression; experiment: Double-blind placebo-controlled cross-over study of mifepristone in psychotic major depression; assay type: in vivo, human
Text: The study requires a nine day, closely observed hospital stay. Individuals included in this study were diagnosed as psychotic depressives using criteria as set forth by the DSM-IV, as described above. This diagnosis was confirmed by two psychiatrists. All are between the ages of 18 and 75. Apart from hypercortisolemia, they have no major medical problems. They have no signs of Cushings Syndrome. No […] of childbearing potential are included in the study. Individuals admitting to having used illicit drugs within a month prior to admission for the study are excluded. Individuals admitting to drinking in excess of two ounces of alcohol daily are excluded from the study. No anti-psychotic medication was taken within three days of entering the study. While, concurrent anti-depressant was not a criteria used to excluded anyone from the study, no individual was started on an anti-depressant medication while participating in the study. All patients gave their written consent to a protocol approved by the Human Subjects Committee at Stanford University Medical Center. All participants were given the Hamilton Rating Scale for Depression (HAM-D, Hamilton (1962) J. Neurol. Psychiatry, supra, discussed above) and the Structured Clinical Interview for DSM-IV Axis I mood disorders tests (as described above). Only individuals with a score greater than 21 on the HAM-D test continued in the study (a HAM-D score of >21 indicates moderate to severe depression). […] Formal psychiatric assessment, including the HAM-D rating scale (Overall (1962) supra; Kaplan (1995), supra, discussed above), the Brief Psychiatric Rating Scale (BPRS) (Overall (1962) supra; Kaplan (1995), supra, discussed above) and the […] (GAF) evaluation (DSM-IV, supra, pages 30 to 31; Kaplan, ed. (1995), supra) was carried out on days one, three, five, seven and nine of the study at 10:00 AM (at 1000 hours). A paragraph recall test (see below) was given at 11:30 AM (at 1130 hours) on days one, five and nine. Cortisol levels were measured serially every half hour from […] to 4:00 PM (1300 to 1600 hours) on days one, five and nine. Plasma ACTH and Plasma HVA was measured serially every hour from 1300 to 1600 on days one, five and nine. Routine biological and hematological studies were conducted daily, particularly to screen for evidence of relative adrenal insufficiency, i.e., hypoglycemia, eosinophilia. One means used to assess/measure improvement, or amelioration of psychosis in the study was the “Wallach Recognition Test” (a paragraph recall test). Newly evaluated individuals with an initial diagnosis of psychotic major depression, diagnosed as described above, were given a recognition task adapted from Wallach (1980) supra. Subjects listened to a taped recording of a sixteen-word list presented at the rate of one word every ten seconds. The-subject repeats each of the sixteen words and is asked to think of what the words mean to them. Following the presentation of the list, the subject engages in a twenty minute motor distraction task. The subject then listens to a fifty-word list containing the sixteen original target words plus thirty-four background distraction words. The subject then is asked to discern between target words and distractors. Sixteen newly admitted patients with an admitting diagnosis of psychotic major depression confirmed by two psychiatrists were enrolled in the study. Each patient conformed with all of the above described criteria. […] In the patients administered mifepristone, three two hundred milligram tablets per day were given for four days. […] The tablets were manufactured by Shanghai HuaLian Pharmaceuticals Co., Ltd., Shanghai, China (currently the sole commercial source of RU486). Both patients and the investigators are “blind” as to which compound (test mifepristone or placebo) the patient received.

[3] = test system: patients with severe Cushing Syndrome; conditions: 400 to 800 mg per day; adrenal cancers and ectopic ACTH secretion from lung cancer; cited from earlier work
[4] = test system: patients with chronic severe depression; conditions: about 2.5 to 4.4 mg/kg per day, up to eight weeks; four patients; cited from earlier work
[5] = target: T2, progesterone receptor (Homo sapiens, UniProt P06401); conditions: cited from earlier work
T2 sequence (P06401 1-933): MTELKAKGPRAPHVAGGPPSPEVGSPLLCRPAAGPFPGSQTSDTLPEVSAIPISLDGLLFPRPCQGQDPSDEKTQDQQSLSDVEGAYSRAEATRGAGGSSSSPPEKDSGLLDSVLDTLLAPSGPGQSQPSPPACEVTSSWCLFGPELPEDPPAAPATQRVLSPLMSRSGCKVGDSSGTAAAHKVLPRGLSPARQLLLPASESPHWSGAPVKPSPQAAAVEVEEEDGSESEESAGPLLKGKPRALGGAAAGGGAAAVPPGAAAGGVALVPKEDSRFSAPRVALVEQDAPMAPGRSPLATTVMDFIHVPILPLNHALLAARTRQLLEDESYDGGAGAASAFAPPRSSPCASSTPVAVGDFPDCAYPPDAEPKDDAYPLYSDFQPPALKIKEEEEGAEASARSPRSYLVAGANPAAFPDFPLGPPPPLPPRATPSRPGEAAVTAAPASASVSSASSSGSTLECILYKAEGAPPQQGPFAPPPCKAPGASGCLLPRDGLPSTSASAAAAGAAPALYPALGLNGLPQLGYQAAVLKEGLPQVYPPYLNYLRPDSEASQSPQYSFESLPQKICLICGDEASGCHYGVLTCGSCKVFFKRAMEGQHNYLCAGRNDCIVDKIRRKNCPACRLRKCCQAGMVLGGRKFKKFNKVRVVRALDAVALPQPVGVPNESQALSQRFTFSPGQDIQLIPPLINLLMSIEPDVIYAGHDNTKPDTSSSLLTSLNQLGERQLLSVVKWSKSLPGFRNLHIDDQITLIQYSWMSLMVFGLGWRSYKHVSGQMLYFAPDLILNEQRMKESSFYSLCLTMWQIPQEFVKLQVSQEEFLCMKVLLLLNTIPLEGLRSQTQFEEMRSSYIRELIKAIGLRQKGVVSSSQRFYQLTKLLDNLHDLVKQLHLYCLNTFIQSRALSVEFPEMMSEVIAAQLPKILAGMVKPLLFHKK

[6] = one study; cited from earlier work

Row | SMILES | GR antagonist activity [1] | adverse effects reported by patient or observed by raters or staff ([2]; 600 mg per day orally, four days) | psychiatric condition ([2]; 600 mg per day orally, four days, three patients completed, blind not broken) | Wallach Recognition Test: amelioration of psychosis ([2]; all individuals who received mifepristone) | HAM-D score after treatment ([2]; average, score after decline) | HAM-D score before treatment ([2]; average, starting score) | Brief Psychiatric Rating Scale (BPRS) score after treatment ([2]; score after decline) | Clinical Global Impression (CGI scale) score after treatment ([2]; score after drop, mildly depressed) | Brief Psychiatric Rating Scale (BPRS) score before treatment ([2]; starting score) | Clinical Global Impression (CGI scale) score before treatment ([2]; starting score, indicating markedly depressed) | effect on acute psychosis [3] | response to treatment [4] | progesterone receptor antagonist activity [5] | fraction of the daily dose excreted in the urine [6]
1 | CC#C[C@]1(O)CC[C@H]2[C@@H]3CCC4=CC(=O)CCC4=C3[C@@H](c3ccc(OCCN(C)C)cc3)C[C@@]21C [RU009, 11-beta-(4 dimethyl-amninoethoxyphenyl)-17-alpha-(propynyl-17beta-hydroxy-4,9-estradien-3-one)] | GR antagonist effects |  |  |  |  |  |  |  |  |  |  |  |  | 
2 | CC#C[C@]1(O)CC[C@H]2[C@@H]3CCC4=CC(=O)CCC4=C3[C@@H](c3ccc(N(C)C)cc3)C[C@@]21C [mifepristone, 17-beta-hydroxy-11-beta-(4-dimethyl-aminophenyl)-17-alpha-(1-propynyl)-estra-4,9-dien-3-one] | powerful antagonist | no adverse effects | significant improvement | showed an amelioration of their psychosis | about 13.5 | about 26 | about 29.5 | about 3 | about 40.5 | about 5 | useful in rapidly reversing acute psychosis | responded to treatment | powerful antagonist | less than 0.5%
